Results taken from patent US10064913B2, “Immunotherapy against several tumors including gastrointestinal and gastric cancer” (IMMATICS BIOTECHNOLOGIES GMBH, priority 2010, dated 2018).

Tests used:
[1] = test system: CD8+ T cells; experiment: In vitro immunogenicity of HLA-A*2402 restricted TUMAPs (aAPC priming of CD8+ T cells, multimer staining); format: cell-based, human; conditions: HLA-A*2402 peptides, CD8+ T cells of healthy HLA-A*24 donors, three stimulation cycles with pMHC/anti-CD28 beads; for Wells positive/evaluable [%]: at least 48 wells evaluable; for Donors positive/evaluable [%]: at least four donors evaluable
From the text: (§1) In order to perform in vitro stimulations by artificial antigen presenting cells (aAPC) loaded with peptide-MHC complex (pMHC) and anti-CD28 antibody, we first isolated CD8 T cells from fresh HLA-A*24 leukapheresis products or from HLA-A*2 buffy coats of healthy donors obtained from the Blood Bank Tuebingen.
(§2) CD8 T cells were either directly enriched or PBMCs (peripheral blood mononuclear cells) were isolated first by using standard gradient separation medium (PAA, Colbe, Germany). Isolated CD8 lymphocytes or PBMCs were incubated until use in T-cell medium (TCM) consisting of RPMI-Glutamax (Invitrogen, Karlsruhe, Germany) supplemented with 10% heat inactivated human AB serum (PAN-Biotech, Aidenbach, Germany), 100 U/ml Penicillin/100 μg/ml Streptomycin (Cambrex, Cologne, Germany), 1 mM sodium pyruvate (CC Pro, Oberdorla, Germany), 20 μg/ml Gentamycin (Cambrex). […] Isolation of CD8+ lymphocytes was performed by positive selection using CD8 MicroBeads (Miltenyi Biotec, Bergisch-Gladbach, Germany).
(§3) 800.000 beads/200 μl were coated in 96-well plates in the presence of 600 ng biotin-anti-CD28 plus 200 ng relevant biotin-pMHC (high density beads). […] Half of the medium was then exchanged by fresh TCM supplemented with 80 U/ml IL-2 and incubation was continued for 3-4 days at 37° C. This stimulation cycle was performed for a total of three times.
(§4) In vitro priming of specific multimer+CD8+ lymphocytes was detected by appropriate gating and by comparing to negative control stimulations.

[2] = test system: CD8+ T cells; experiment: In vitro immunogenicity of HLA-A*0201 restricted TUMAPs (aAPC priming of CD8+ T cells, multimer staining); format: cell-based, human; conditions: HLA-A*0201 peptides, CD8+ T cells from HLA-A*2 buffy coats of healthy donors, three stimulation cycles
From the text: as §1, §2, §3, §4

| Sequence | Wells positive/evaluable [%] [1] [%] | Donors positive/evaluable [%] [1] [%] | Donors positive/evaluable [%] [2] [%] | Wells positive/evaluable [%] [2] [%] |
| --- | --- | --- | --- | --- |
| AYAIIKEEL (listed as Homo sapiens) [ATAD2-001] | 3 | 33 | – | – |
| AYLVYTDRL (listed as Homo sapiens) [PPAP2C-001] | 29 | 83 | – | – |
| AYPTVKFYF (listed as Homo sapiens) [DNAJC10-002] | 3 | 33 | – | – |
| DYAYLREHF (listed as Homo sapiens) [ZNF598-001] | 17 | 83 | – | – |
| DYTIGFGKF (listed as Homo sapiens) [ITGB4-001] | 20 | 67 | – | – |
| FYISPVNKL (listed as Homo sapiens) [AVL9-001] | 31 | 100 | – | – |
| FYQPKIQQF (listed as Homo sapiens) [FANCI-001] | 1 | 17 | – | – |
| HYKPTPLYF (listed as Homo sapiens) [SMC4-001] | 10 | 73 | – | – |
| IFSKIVSLF (listed as Homo sapiens) [EIF2S3-001] | 1 | 17 | – | – |
| IYAPKLQEF (listed as Homo sapiens) [CCNE2-001] | 0 | 0 | – | – |
| IYLEVIHNL (listed as Homo sapiens) [DNAJC10-001] | 15 | 50 | – | – |
| IYNGKLFDLL (listed as Homo sapiens) [KIF2C-001] | 2 | 17 | – | – |
| IYPDASLLI (listed as Homo sapiens) [CEA-010] | 3 | 40 | – | – |
| KIFDEILVNA (listed as Homo sapiens) [TOP-001] | – | – | 40 | 10 |
| KIQEILTQV (listed as Homo sapiens) [IGF2BP3-001] | – | – | 50 | 21 |
| KYLTVKDYL (listed as Homo sapiens) [ATAD2-002] | 1 | 17 | – | – |
| KYNDTFWKEF (listed as Homo sapiens) [HSP90B1-001] | 7 | 50 | – | – |
| LYLENIDEF (listed as Homo sapiens) [POLD3-001] | 7 | 67 | – | – |
| LYPEVFEKF (listed as Homo sapiens) [ATAD2-003] | 0 | 0 | – | – |
| LYQILQGIVF (listed as Homo sapiens) [CDC2-001] | 28 | 83 | – | – |
| MYMTVSIIDRF (listed as Homo sapiens) [CCNB1-003] | 3 | 33 | – | – |
| NYEETFPHI (listed as Homo sapiens) [MUC6-001] | 22 | 83 | – | – |
| NYLLYVSNF (listed as Homo sapiens) [MST1R-001] | 13 | 50 | – | – |
| NYLPFIMEL (listed as Homo sapiens) [UCHL5-001] | 12 | 75 | – | – |
| QYASRFVQL (listed as Homo sapiens) [PLK4-001] | 5 | 60 | – | – |
| QYIDKLNEL (listed as Homo sapiens) [CCDC88A-001] | 0 | 0 | – | – |
| RFLSGIINF (listed as Homo sapiens) [NUF2-002] | 6 | 50 | – | – |
| RYLEGTSCI (listed as Homo sapiens) [EPPK1-001] | 1 | 17 | – | – |
